Literature values, collected in paper PMC6962532 (Journal of the American Chemical Society, 2020).

Columns and labels:
[1] = test system: AgrC-I; settings: for activity of native AIP signal on AgrC-I: cross-group interaction
[2] = test system: AgrC-III; settings: cross-group interaction
[3] = test system: AgrC-II; settings: cross-group interaction

A-S-A-(C-A-A-Y-F) [AAA]
IC50 value ([1]; AgrC-I, in words): single-digit nanomolar

D-S-A-(C-A-S-Y-F) [AIP-I V3A]
antagonism potency relative to t-AIP-I ([1]; AgrC-I): approximately four-fold more potent

D-S-V-(C-A-S-Y-F) [AIP-I]
activity of native AIP signal on AgrC-III [2]: inhibits | activity of native AIP signal on AgrC-II [3]: inhibits

N-A-A-K-Y-N-P-(C-A-S-Y-L) [AIP-III]
activity of native AIP signal on AgrC-I [1]: inhibit

N-A-S-K-Y-N-P-(C-S-N-Y-L) [AIP-II]
activity of native AIP signal on AgrC-I [1]: inhibit
